# Test results as given in publication PMC2982120 (2010).
# T1: Jen1p (Saccharomyces cerevisiae, UniProt P36035)
# T1 sequence (P36035 2-616): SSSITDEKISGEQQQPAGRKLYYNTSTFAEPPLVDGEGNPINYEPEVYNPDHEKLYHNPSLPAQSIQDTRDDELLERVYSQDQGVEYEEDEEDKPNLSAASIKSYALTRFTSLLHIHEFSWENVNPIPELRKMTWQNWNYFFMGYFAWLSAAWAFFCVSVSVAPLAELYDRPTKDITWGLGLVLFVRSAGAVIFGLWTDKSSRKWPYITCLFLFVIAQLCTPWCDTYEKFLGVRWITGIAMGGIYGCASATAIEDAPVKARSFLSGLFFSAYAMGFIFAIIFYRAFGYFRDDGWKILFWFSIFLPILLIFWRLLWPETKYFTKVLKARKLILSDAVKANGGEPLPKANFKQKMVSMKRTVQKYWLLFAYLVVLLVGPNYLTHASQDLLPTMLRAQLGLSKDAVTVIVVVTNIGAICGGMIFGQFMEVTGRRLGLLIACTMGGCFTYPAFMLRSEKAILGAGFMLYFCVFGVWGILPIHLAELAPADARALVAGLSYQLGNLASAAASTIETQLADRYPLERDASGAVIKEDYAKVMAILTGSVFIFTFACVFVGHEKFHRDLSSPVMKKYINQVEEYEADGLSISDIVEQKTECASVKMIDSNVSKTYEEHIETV
# Tests used:
# [1] = target: T1, Jen1p; assay: […]-lactate uptake in Jen1p-overexpressing yeast; type: cell-based
# [2] = substrate: O=[Se](O)O; assay: selenite uptake; type: cell-based, Saccharomyces cerevisiae; settings: competitive with lactate
Molecule,Ki [1] [µM],Km [2] [µM]
CC(O)C(=O)O (centres unmarked) [lactate],900,–
Jen1p (Saccharomyces cerevisiae S288C) (protein) SSSITDEKISGEQQQPAGRKLYYNTSTFAEPPLVDGEGNPINYEPEVYNPDHEKLYHNPSLPAQSIQDTRDDELLERVYSQDQGVEYEEDEEDKPNLSAASIKSYALTRFTSLLHIHEFSWENVNPIPELRKMTWQNWNYFFMGYFAWLSAAWAFFCVSVSVAPLAELYDRPTKDITWGLGLVLFVRSAGAVIFGLWTDKSSRKWPYITCLFLFVIAQLCTPWCDTYEKFLGVRWITGIAMGGIYGCASATAIEDAPVKARSFLSGLFFSAYAMGFIFAIIFYRAFGYFRDDGWKILFWFSIFLPILLIFWRLLWPETKYFTKVLKARKLILSDAVKANGGEPLPKANFKQKMVSMKRTVQKYWLLFAYLVVLLVGPNYLTHASQDLLPTMLRAQLGLSKDAVTVIVVVTNIGAICGGMIFGQFMEVTGRRLGLLIACTMGGCFTYPAFMLRSEKAILGAGFMLYFCVFGVWGILPIHLAELAPADARALVAGLSYQLGNLASAAASTIETQLADRYPLERDASGAVIKEDYAKVMAILTGSVFIFTFACVFVGHEKFHRDLSSPVMKKYINQVEEYEADGLSISDIVEQKTECASVKMIDSNVSKTYEEHIETV,–,910 ± 130
